Earlier results, collected in patent US8337481B2, “Method for treating otitis externa” (priority 2005, dated 2012).

Biological Half Life	SMILES
18-36 Hours	C[C@H]1C[C@@H]2[C@H]([C@@H](O)C[C@@]3(C)[C@H]2CC[C@]3(O)C(=O)CO)[C@@]2(C)C=CC(=O)C=C12 [Methyl-prednisolone, methylprednisolone]
8-12 Hours	C[C@]12CCC(=O)C=C1CC[C@@H]1[C@@H]2[C@@H](O)C[C@@]2(C)[C@H]1CC[C@]2(O)C(=O)CO [hydrocortisone]
18-36 Hours	C[C@]12C=CC(=O)C=C1CC[C@@H]1[C@@H]2[C@@H](O)C[C@@]2(C)[C@H]1CC[C@]2(O)C(=O)CO [prednisolone]
18-36 Hours	C[C@]12C=CC(=O)C=C1CC[C@H]1[C@@H]3C[C@@H](O)[C@](O)(C(=O)CO)[C@@]3(C)C[C@H](O)[C@@]12F [triamcinolone]
